Reference: patent publication US12371454B2, “Cyclic peptide compound having Kras inhibitory action” (priority 2019, dated 2025)
Starred links: 1 amine or outer side, 2 acyl side, 3 side chain; linkers in the order of their positions; H or OH if unused. Positions of bridges follow the written chain, without caps; N, C: chain ends. Non-standard residues stand in square brackets, D forms with d. Residues, ends and D or L forms follow the SMILES beside them. *: point of attachment. hPhe(3-Cl-4-CF3) = N[C@@H](CCc1ccc(C(F)(F)F)c(Cl)c1)C(=O)O; hPhe(3-F,4-CF3) = N[C@@H](CCc1ccc(C(F)(F)F)c(F)c1)C(=O)O; X44 = O=C([C@H](CCc1ccc2ncccc2c1)N[*:1])[*:2]; NMePhe(4-Cl) = CN[C@@H](Cc1ccc(Cl)cc1)C(=O)O; X9 = O=C([C@H](CCc1ccc2cccnc2c1)N[*:1])[*:2]; NMeGly(cPent) = CN[C@H](C(=O)O)C1CCCC1; mXylylene = c1cc(C[*:1])cc(C[*:2])c1; NMeCha = CN[C@@H](CC1CCCCC1)C(=O)O; cisHyp = O=C(O)[C@@H]1C[C@H](O)CN1; NMeChg = CN[C@H](C(=O)O)C1CCCCC1; NMeI = CC[C@H](C)[C@H](NC)C(=O)O; Piperidide(4-Me) = CC1CCN(*)CC1; NMeD = CN[C@@H](CC(=O)O)C(=O)O; NMeL = CN[C@@H](CC(C)C)C(=O)O; NMeNva = CCC[C@H](NC)C(=O)O; NMeV = CN[C@H](C(=O)O)C(C)C; d(β3hA) = C[C@@H](N)CC(=O)O; NMeS = CN[C@@H](CO)C(=O)O; NMeA = CN[C@@H](C)C(=O)O; Piperidide = C1CCN(*)CC1; Ac5c = NC1(C(=O)O)CCCC1; Aze = O=C(O)[C@@H]1CCN1; Sar = CNCC(=O)O; Propyl = CCC*

tested on: Human pancreatic cancer cell line AsPC-1; assay: Measurement of AsPC-1 cell growth inhibition (AsPC-1 CGI); format: cell-based; details: 96 h
How it was run: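 AsPC-1 cells in 15% FBS RPMI-1640 were exposed to test compound for 96 hours at 37° C, with CellTiter-Glo as endpoint.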

SMILES | IC50 [µM]
CC[C@H](C)[C@@H]1NC(=O)[C@H](CC(C)C)N(C)C(=O)C[C@@H](C(=O)N2CCCCC2)N(C)C(=O)[C@H](CC(C)C)N(C)C(=O)C2(CCCC2)NC(=O)[C@@H]2C[C@H](OCc3cccc(C)c3)CN2C(=O)[C@H](CCc2ccc(C(F)(F)F)c(F)c2)NC(=O)CN(C)C(=O)[C@H](CC2CCCCC2)N(C)C(=O)CN(C)C(=O)CN(C)C1=O [Compound 2141] ([NMeL]I[Sar][Sar][NMeCha][Sar][hPhe(3-F,4-CF3)][cisHyp](mXylylene)[Ac5c][NMeL][NMeD]-Piperidide; lactam N-11) | > 0.5
CC[C@H](C)[C@@H]1NC(=O)[C@H](CC(C)C)N(C)C(=O)C[C@@H](C(=O)N2CCCCC2)N(C)C(=O)[C@H](C2CCCC2)N(C)C(=O)C2(CCCC2)NC(=O)[C@@H]2CCCN2C(=O)[C@H](CCc2ccc3cccnc3c2)NC(=O)CN(C)C(=O)[C@H](CC2CCCCC2)N(C)C(=O)[C@@H]2CCN2C(=O)[C@H](C)N(C)C1=O [Compound 2077] ([NMeL]I[NMeA][Aze][NMeCha][Sar][X9]P[Ac5c][NMeGly(cPent)][NMeD]-Piperidide; lactam N-11) | 0.1 to 0.5
CC[C@H](C)[C@@H]1NC(=O)[C@H](CC(C)C)NC(=O)C[C@@H](C(=O)N2CCCCC2)N(C)C(=O)[C@H](C2CCCCC2)N(C)C(=O)C2(CCCC2)NC(=O)[C@@H]2CCCN2C(=O)[C@H](CCc2ccc(C(F)(F)F)c(Cl)c2)NC(=O)CN(C)C(=O)[C@H](CC2CCCCC2)N(C)C(=O)CN(C)C(=O)CN(C)C1=O [Compound 356] (LI[Sar][Sar][NMeCha][Sar][hPhe(3-Cl-4-CF3)]P[Ac5c][NMeChg][NMeD]-Piperidide; lactam N-11) | 0.1 to 0.5
CC[C@H](C)[C@@H]1NC(=O)[C@H](CC(C)C)N(C)C(=O)C[C@@H](C(=O)N2CCCCC2)N(C)C(=O)[C@H](C(C)C)N(C)C(=O)C2(CCCC2)NC(=O)[C@@H]2CCCN2C(=O)[C@H](CCc2ccc(C(F)(F)F)c(Cl)c2)NC(=O)CN(C)C(=O)[C@H](CC2CCCCC2)N(C)C(=O)[C@@H]2CCN2C(=O)[C@H](C)NC1=O [Compound 1334] ([NMeL]IA[Aze][NMeCha][Sar][hPhe(3-Cl-4-CF3)]P[Ac5c][NMeV][NMeD]-Piperidide; lactam N-11) | 0.1 to 0.5
CCC[C@H]1C(=O)N[C@@H]([C@@H](C)CC)C(=O)N(C)[C@@H](C)C(=O)N2CC[C@H]2C(=O)N(C)[C@@H](CC2CCCCC2)C(=O)N(C)CC(=O)N[C@@H](CCc2ccc(C(F)(F)F)c(Cl)c2)C(=O)N2CCC[C@H]2C(=O)NC2(CCCC2)C(=O)N(C)[C@@H](C(C)C)C(=O)N[C@H](C)CC(=O)N1C [Compound 1564] (cyclo([Ac5c][NMeV][d(β3hA)][NMeNva]I[NMeA][Aze][NMeCha][Sar][hPhe(3-Cl-4-CF3)]P)) | 0.1 to 0.5
CC[C@H](C)[C@@H]1NC(=O)[C@H](CC(C)C)N(C)C(=O)C[C@@H](C(=O)N2CCCCC2)N(C)C(=O)[C@H](C2CCCC2)N(C)C(=O)C2(CCCC2)NC(=O)[C@@H]2CCCN2C(=O)[C@H](CCc2ccc3ncccc3c2)NC(=O)CN(C)C(=O)[C@H](CC2CCCCC2)N(C)C(=O)[C@@H]2CCN2C(=O)[C@H](C)N(C)C1=O [Compound 2070] ([NMeL]I[NMeA][Aze][NMeCha][Sar][X44]P[Ac5c][NMeGly(cPent)][NMeD]-Piperidide; lactam N-11) | > 0.5
CC[C@H](C)[C@@H]1NC(=O)[C@H](CC(C)C)N(C)C(=O)C[C@@H](C(=O)N2CCCCC2)N(C)C(=O)[C@H](C(C)C)N(C)C(=O)C2(CCCC2)NC(=O)[C@@H]2CCCN2C(=O)[C@H](CCc2ccc(C(F)(F)F)c(Cl)c2)NC(=O)CN(C)C(=O)[C@H](Cc2ccc(Cl)cc2)N(C)C(=O)[C@@H]2CCN2C(=O)[C@H](C)N(C)C1=O [Compound 680] ([NMeL]I[NMeA][Aze][NMePhe(4-Cl)][Sar][hPhe(3-Cl-4-CF3)]P[Ac5c][NMeV][NMeD]-Piperidide; lactam N-11) | 0.1 to 0.5
CC[C@H](C)[C@@H]1NC(=O)[C@H](CC(C)C)N(C)C(=O)C[C@@H](C(=O)N2CCC(C)CC2)N(C)C(=O)[C@H](C(C)C)N(C)C(=O)C2(CCCC2)NC(=O)[C@@H]2CCCN2C(=O)[C@H](CCc2ccc(C(F)(F)F)c(Cl)c2)NC(=O)CN(C)C(=O)[C@H](CC2CCCCC2)N(C)C(=O)[C@@H]2CCN2C(=O)[C@H](C)N(C)C1=O [Compound 1291] ([NMeL]I[NMeA][Aze][NMeCha][Sar][hPhe(3-Cl-4-CF3)]P[Ac5c][NMeV][NMeD]-{Piperidide(4-Me)}; lactam N-11) | 0.1 to 0.5
CCCOC[C@H]1C(=O)N(C)CC(=O)N[C@@H](CCc2ccc(C(F)(F)F)c(F)c2)C(=O)N2CCC[C@H]2C(=O)NC2(CCCC2)C(=O)N(C)[C@@H]([C@@H](C)CC)C(=O)N(C)[C@H](C(=O)N2CCCCC2)CC(=O)N(C)[C@@H](CC(C)C)C(=O)N[C@@H]([C@@H](C)CC)C(=O)N(C)[C@@H](C)C(=O)N2CC[C@H]2C(=O)N1C [Compound 236] ([NMeL]I[NMeA][Aze][NMeS](Propyl)[Sar][hPhe(3-F,4-CF3)]P[Ac5c][NMeI][NMeD]-Piperidide; lactam N-11) | 0.02 to 0.05
